Columns and labels:
[1] = Human pharmacokinetics, heart failure subjects, 7.5-hour continuous ascending dose IV infusion; conditions: in vivo; for Tmax: median
Description: In heart failure subjects following a 7.5-hour continuous ascending dose IV infusion of h-SCP (SEQ ID NO:1) noncompartmental pharmacokinetic analyses were performed on plasma concentrations of h-SCP (SEQ ID NO:1). The pharmacokinetics of h-SCP (SEQ ID NO:1) in heart failure subjects appeared to be similar to that of healthy subjects. […] Within 30 minutes, plasma h-SCP (SEQ ID NO:1) was reduced to equal or less than 20% of the h-SCP (SEQ ID NO:1) level at the end of the infusion (FIG. 16B).

[2] = Nonclinical pharmacokinetics in rats; set-up: species or system rat; conditions: in vivo
Description: (§1) A sandwich immunoassay was developed using an affinity purified goat polyclonal antibody, specific to h-SCP that was pre-coated onto a microplate with integrated electrodes. h-SCP molecules present in the sample will bind to the capture polyclonal antibody coated on the plate. After washing away any unbound substances, a sulfo-tagged mouse monoclonal anti-h-SCP antibody was added. This conjugated antibody will bind to the h-SCP molecules captured on the microplate and the quantity of analyte was determined by electrochemiluminescence. The amount of signal generated is directly proportional to the h-SCP concentration in the sample or standard. The standard curve range is 3.125-1600 pg/mL with a quantifiable range from 10-800 pg/mL. A sample volume of 25 μL (in duplicate) is required for this assay. This immunoassay is specific for human and dog stresscopin and human urocortin III (h-UCN3). […] After completion of the analysis, based on a comparison of reference standards between the ELISA and HPLC method, a correction factor of 1.57 was applied to all bioanalytical data.
The nonclinical pharmacokinetics of h-SCP (SEQ ID NO:1) and pegylated stresscopin-like peptides were studied in rats, dogs, and cynomolgus monkeys (cyno). Nonclinical pharmacokinetic studies focused on characterization of IV infusion at pharmacologically relevant dose levels, supplemented with IV and SC bolus and toxicokinetic analysis.

in vivo = conditions: dog, iv
Description: The findings described above were further examined in a study, in which h-SCP (SEQ ID NO:1) was infused over a 30-minute period at the same total doses that were administered by bolus as described above with the results presented in Table 17 and FIGS. 11A & B. As in the case of bolus dosing h-SCP (SEQ ID NO:1) elicited dose- (infusion-) dependent changes in blood pressure, left ventricular systolic and diastolic function, and heart rate. However, at the lower range of the dose- (infusion-) response curve there was a pronounced lessening in the positive chronotropic and blood pressure response with marked and significant increase in cardiac function measured as increased CO and LVEF. […] The corresponding plasma concentration of h-SCP (SEQ ID NO:1) was 4,577 pg/mL.
as §1

[3] = infusion rate 1/3/9 ng/kg/min, mean, N = 2
[4] = infusion rate 3/9/18 ng/kg/min, mean, N = 2
[5] = infusion rate 3/18/54 ng/kg/min, mean, N = 2
[6] = female, rat IV infusion 3 hours, F, 83.3 ng/kg/min
[7] = female, rat IV infusion 3 hours, F, 167 ng/kg/min
[8] = female, rat IV infusion 3 hours, F, 333 ng/kg/min
[9] = male, 3000 ng/kg, rat IV bolus, M, 3,000 ng/kg
[10] = male, 10000 ng/kg, rat IV bolus, M, 10,000 ng/kg
[11] = male, 300000 ng/kg, rat IV bolus, M, 300,000 ng/kg
[12] = male, rat IV infusion 3 hours, M, 83.3 ng/kg/min
[13] = male, rat IV infusion 3 hours, M, 167 ng/kg/min
[14] = male, rat IV infusion 3 hours, M, 333 ng/kg/min

H-TKFTLSLDVPTNIMNLLFNIAKAKNLRAQAAANAHLMAQI-NH2 [SEQ ID NO: 1, TKFTLSLDVPTNIMNLLFNIAKAKNLRAQAAANAHLMAQI-NH2]
AUC(0-inf) ([1]; infusion rate 0.3/1/3 ng/kg/min, N = 1): 3.4 ng·h/mL | clearance ([1]; infusion rate 0.3/1/3 ng/kg/min, N = 1, read-out: CL (converted)): 3.17 mL/min/kg | Cmax ([1]; infusion rate 0.3/1/3 ng/kg/min, mean, N = 2): 0.826 ng/mL | Tmax ([1]; infusion rate 0.3/1/3 ng/kg/min, N = 2): 6.25 h | AUC(0-inf) [1, 3]: 6.72 ng·h/mL | Cmax [1, 3]: 1.98 ng/mL | clearance ([1]; infusion rate 1/3/9 ng/kg/min, mean, N = 2, read-out: CL (converted)): 5.33 mL/min/kg | Tmax ([1]; infusion rate 1/3/9 ng/kg/min, N = 2): 7.04 h | AUC(0-inf) [1, 4]: 19 ng·h/mL | Cmax [1, 4]: 4.77 ng/mL | clearance ([1]; infusion rate 3/9/18 ng/kg/min, mean, N = 2, read-out: CL (converted)): 4 mL/min/kg | Tmax ([1]; infusion rate 3/9/18 ng/kg/min, N = 2): 6.75 h | AUC(0-inf) [1, 5]: 24.9 ng·h/mL | Cmax [1, 5]: 6.41 ng/mL | clearance ([1]; infusion rate 3/18/54 ng/kg/min, mean, N = 2, read-out: CL (converted)): 7.67 mL/min/kg | Tmax ([1]; infusion rate 3/18/54 ng/kg/min, N = 2): 6.04 h | AUC(0-inf) ([1]; infusion rate 9/18/36 ng/kg/min, mean, N = 2): 33.8 ng·h/mL | clearance ([1]; infusion rate 9/18/36 ng/kg/min, mean, N = 2, read-out: CL (converted)): 5.5 mL/min/kg | half-life ([1]; infusion rate 9/18/36 ng/kg/min, mean, N = 2, read-out: T1/2, effective (converted)): 3.95 h | Cmax ([1]; infusion rate 9/18/36 ng/kg/min, mean, N = 3): 5.52 ng/mL | Tmax ([1]; infusion rate 9/18/36 ng/kg/min, N = 3): 7.48 h | AUC(0-inf) ([1]; infusion rate 18/36/45 ng/kg/min, N = 1): 51.5 ng·h/mL | clearance ([1]; infusion rate 18/36/45 ng/kg/min, N = 1, read-out: CL (converted)): 4.83 mL/min/kg | Cmax ([1]; infusion rate 18/36/45 ng/kg/min, mean, N = 2): 8.04 ng/mL | Tmax ([1]; infusion rate 18/36/45 ng/kg/min, N = 2): 7.34 h | clearance ([1]; read-out: Mean systemic clearance): 3.17 to 7.67 mL/min/kg | half-life ([1]; read-out: Mean terminal half-life): 0.24 to 7.04 h | half-life ([1]; read-out: effective half-life): 1.32 to 2.51 h | AUC(0-inf) [2, 6]: 1.47 ng·h/mL | Cmax [2, 6]: 0.906 ng/mL | clearance ([2]; female, rat IV infusion 3 hours, F, 83.3 ng/kg/min, read-out: CL): 107 mL/min/kg | AUC(0-inf) [2, 7]: 1.15 ng·h/mL | Cmax [2, 7]: 0.683 ng/mL | clearance ([2]; female, rat IV infusion 3 hours, F, 167 ng/kg/min, read-out: CL): 271 mL/min/kg | AUC(0-inf) [2, 8]: 4.45 ng·h/mL | Cmax [2, 8]: 2.67 ng/mL | clearance ([2]; female, rat IV infusion 3 hours, F, 333 ng/kg/min, read-out: CL): 130 mL/min/kg | half-life ([2]; female, rat, iv, t1/2 alpha): 0.0317 h | half-life ([2]; female, rat, iv, t1/2 terminal): 0.97 h | AUC(0-inf) [2, 9]: 0.522 ng·h/mL | Cmax [2, 9]: 4.8 ng/mL | clearance ([2]; male, 3000 ng/kg, rat IV bolus, M, 3,000 ng/kg, read-out: CL): 109 mL/min/kg | AUC(0-inf) [2, 10]: 1.5 ng·h/mL | Cmax [2, 10]: 13.6 ng/mL | clearance ([2]; male, 10000 ng/kg, rat IV bolus, M, 10,000 ng/kg, read-out: CL): 116 mL/min/kg | Cmax ([2]; male, 50000 ng/kg, rat IV bolus, M, 50,000 ng/kg): 224 ng/mL | clearance ([2]; male, 50000 ng/kg, rat IV bolus, M, 50,000 ng/kg, read-out: CL): 41.8 mL/min/kg | AUC(0-inf) [2, 11]: 99.7 ng·h/mL | Cmax [2, 11]: 780 ng/mL | clearance ([2]; male, 300000 ng/kg, rat IV bolus, M, 300,000 ng/kg, read-out: CL): 50.1 mL/min/kg | AUC(0-inf) [2, 12]: 1.24 ng·h/mL | Cmax [2, 12]: 0.752 ng/mL | clearance ([2]; male, rat IV infusion 3 hours, M, 83.3 ng/kg/min, read-out: CL): 116 mL/min/kg | AUC(0-inf) [2, 13]: 2.43 ng·h/mL | Cmax [2, 13]: 1.53 ng/mL | clearance ([2]; male, rat IV infusion 3 hours, M, 167 ng/kg/min, read-out: CL): 109 mL/min/kg | AUC(0-inf) [2, 14]: 4.85 ng·h/mL | Cmax [2, 14]: 2.86 ng/mL | clearance ([2]; male, rat IV infusion 3 hours, M, 333 ng/kg/min, read-out: CL): 118 mL/min/kg | half-life ([2]; rat, alpha-phase half-life (t1/2 alpha)): < 0.0833 h | time to apparent steady-state plasma concentration after initiation of infusion ([2]; rat, iv): ≤ 2 h | clearance ([2]; rat, rats, IV bolus, read-out: clearance values): 42 to 116 mL/min/kg | level at 0.5 h (in vivo; 22 ng/kg/min): 0.62 ng/mL | level at time molar at 0.5 h (in vivo; 22 ng/kg/min): 0.142 nM | level at 0.5 h (in vivo; 43 ng/kg/min): 4.58 ng/mL | level at time molar at 0.5 h (in vivo; 43 ng/kg/min): 1.05 nM | level at 0.5 h (in vivo; 86 ng/kg/min): 5.14 ng/mL | level at time molar at 0.5 h (in vivo; 86 ng/kg/min): 1.18 nM | level at 0.5 h (in vivo; 146 ng/kg/min): 23.6 ng/mL | level at time molar at 0.5 h (in vivo; 146 ng/kg/min): 5.41 nM | level at 0.5 h (in vivo; 437 ng/kg/min): 67.1 ng/mL | level at time molar at 0.5 h (in vivo; 437 ng/kg/min): 15.4 nM

Source: US20110105397A1, “METHOD FOR TREATING HEART FAILURE WITH STRESSCOPIN-LIKE PEPTIDES” (priority 2009, published 2011)
